The subject of this test is c-myc in 22RV-1 cells. Briefly: Human c-myc ELISA assay. It is filed as cell-based. The note with it: Homo sapiens; for Emax: 22Rv1, 18 h, read-out: Degradation of BRD4: Maximum inhibition (%) c-Myc ELISA in 22RV1 cells; for DC50: 22Rv1, read-out: Degradation of BRD4: DC50 (uM) c-Myc ELISA in 22RV1 cells. Put shortly: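 22RV-1 cells treated 18 h with 8-point 1:3 compound dilutions (final top 300 nM or 1 μM, 0.1% DMSO). Cells lysed in RIPA buffer with protease/phosphatase inhibitors, and c-myc protein in cleared lysate quantified by ELISA against a standard curve. DC50 reported for c-myc suppression.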

In the case of `Cc1ncsc1-c1ccc(CNC(=O)[C@@H]2C[C@@H](O)CN2C(=O)[C@@H](NC(=O)COCCCOCCCOc2ccc3c(c2)c2c(C(N)=O)cc(-c4c(C)noc4C)cc2n3Cc2ccccc2)C(C)(C)C)cc1` [Example 133, 9-benzyl-2-(dimethyl-1,2-oxazol-4-yl)-6-{3-[3-({[(2S)-1-[(2S,4R)-4-hydroxy-2-({[4-(4-methyl-1,3-thiazol-5-yl)phenyl]methyl}carbamoyl)pyrrolidin-1-yl]-3,3-dimethyl-1-oxobutan-2-yl]carbamoyl}methoxy)propoxy]propoxy}-9H-carbazole-4-carboxamide], the Emax was determined as 98% and the DC50 is 0.01 to 0.1 µM.

On to `Cc1ncsc1-c1ccc([C@H](C)NC(=O)[C@@H]2C[C@@H](O)CN2C(=O)[C@@H](NC(=O)COc2ccc(O[C@@H](C)CNC(=O)C[C@@H]3N=C(c4ccc(Cl)cc4)c4c(sc(C)c4C)-n4c(C)nnc43)cc2)C(C)(C)C)cc1` [Example 135, (2S,4R)-1-[(2S)-2-{2-[(6-{[(2S)-1-{2-[(9S)-7-(4-chlorophenyl)-4,5,13-trimethyl-3-thia-1,8,11,12-tetraazatricyclo[8.3.0.0^2,^6]trideca-2(6),4,7,10,12-pentaen-9-yl]acetamido}propan-2-yl]oxy}pyridin-3-yl)oxy]acetamido}-3,3-dimethylbutanoyl]-4-hydroxy-N-[(1S)-1-[4-(4-methyl-1,3-thiazol-5-yl)phenyl]ethyl]pyrrolidine-2-carboxamide], for which the Emax worked out at 99% and the half-maximal degradation concentration (DC50) was under 0.01 µM.

`CC1=NN=C2C1c1sc(C)c(C)c1C(c1ccc(Cl)cc1)=N[C@H]2CC(=O)NCCOCCOCCC(=O)N[C@H](C(=O)N1C[C@H](O)CC1C(=O)N[C@@H](C)c1ccc(-c2scnc2C)cc1)C(C)(C)C` (stereo partly shown) [Example 136]: the Emax was 96% and the DC50 was in the range of 0.01 to 0.1 µM.

With `Cc1ncsc1-c1ccc(CNC(=O)[C@@H]2C[C@@H](O)CN2C(=O)[C@@H](NC(=O)COCCO[C@H]2C[C@H](NC(=O)C[C@@H]3N=C(c4ccc(Cl)cc4)c4c(sc(C)c4C)-n4c(C)nnc43)C2)C(C)(C)C)cc1` [Example 137], the Emax was 86.9% and the DC50 is 0.1 to 1 µM.

In the case of `Cc1ncsc1-c1ccc(CNC(=O)[C@@H]2C[C@@H](O)CN2C(=O)[C@@H](NC(=O)COCCO[C@H]2C[C@@H](NC(=O)C[C@@H]3N=C(c4ccc(Cl)cc4)c4c(sc(C)c4C)-n4c(C)nnc43)C2)C(C)(C)C)cc1` [Example 138], the Emax amounted to 89.4% and the DC50 lay within 0.1 to 1 µM.

Consider `Cc1ncsc1-c1ccc(CNC(=O)[C@@H]2C[C@@H](O)CN2C(=O)[C@@H](NC(=O)CCc2ccc(OCCNC(=O)C[C@@H]3N=C(c4ccc(Cl)cc4)c4c(sc(C)c4C)-n4c(C)nnc43)nc2)C(C)(C)C)cc1` [Example 139, (2S,4R)-1-[(2S)-2-{3-[6-(2-{2-[(9S)-7-(4-chlorophenyl)-4,5,13-trimethyl-3-thia-1,8,11,12-tetraazatricyclo[8.3.0.0^2,^6]trideca-2(6),4,7,10,12-pentaen-n-9-yl]acetamido}ethoxy)pyridin-3-yl]propanamido}-3,3-dimethylbutanoyl]-4-hydroxy-N-{[4-(4-methyl-1,3-thiazol-5-yl)phenyl]methyl}pyrrolidine-2-carboxamide], for which the Emax turned out to be 98% and the DC50 is under 0.01 µM.

For the molecule `Cc1ncsc1-c1ccc(CNC(=O)[C@@H]2C[C@@H](O)CN2C(=O)[C@@H](NC(=O)COc2ccc(O[C@H]3C[C@H](NC(=O)C[C@@H]4N=C(c5ccc(Cl)cc5)c5c(sc(C)c5C)-n5c(C)nnc54)C3)nc2)C(C)(C)C)cc1` [Example 140], the Emax was found to be 98% and the DC50 was under 0.01 µM.

Consider `Cc1ncsc1-c1ccc([C@H](C)NC(=O)[C@@H]2C[C@@H](O)CN2C(=O)[C@@H](NC(=O)COc2ccc(O[C@H]3C[C@H](NC(=O)C[C@@H]4N=C(c5ccc(Cl)cc5)c5c(sc(C)c5C)-n5c(C)nnc54)C3)nc2)C(C)(C)C)cc1` [Example 141, (2S,4R)-1-[(2S)-3,3-dimethyl-2-[2-({6-[(1,3trans)-3-{2-[(9S)-7-(4-chlorophenyl)-4,5,13-trimethyl-3-thia-1,8,11,12-tetraazatricyclo[8.3.0.0^2,^6]trideca-2(6),4,7,10,12-pentaen-9-yl]acetamido}cyclobutoxy]pyridin-3-yl}oxy)acetamido]butanoyl]-4-hydroxy-N-[(1S)-1-[4-(4-methyl-1,3-thiazol-5-yl)phenyl]ethyl]pyrrolidine-2-carboxamide], for which the Emax was 98% and the DC50 is under 0.01 µM.

For the molecule `Cc1ncsc1-c1ccc([C@H](C)NC(=O)[C@@H]2C[C@@H](O)CN2C(=O)[C@@H](NC(=O)CCc2cc(OCCNC(=O)C[C@@H]3N=C(c4ccc(Cl)cc4)c4c(sc(C)c4C)-n4c(C)nnc43)ccc2F)C(C)(C)C)cc1` [Example 142, (2S,4R)-1-[(2S)-2-{3-[5-(2-{2-[(9S)-7-(4-chlorophenyl)-4,5,13-trimethyl-3-thia-1,8,11,12-tetraazatricyclo[8.3.0.0^2,^6]trideca-2(6),4,7,10,12-pentaen-9-yl]acetamido}ethoxy)-2-fluorophenyl]propanamido}-3,3-dimethylbutanoyl]-4-hydroxy-N-[(1S)-1-[4-(4-methyl-1,3-thiazol-5-yl)phenyl]ethyl]pyrrolidine-2-carboxamide], the Emax is 98% and the DC50 was under 0.01 µM.

For the molecule `Cc1ncsc1-c1ccc(CNC(=O)[C@@H]2C[C@@H](O)CN2C(=O)[C@@H](NC(=O)COCCCOCCCCCOc2ccc3c(c2)c2c(C(N)=O)cc(-c4c(C)noc4C)cc2n3Cc2ccccc2)C(C)(C)C)cc1` [Example 143, 9-benzyl-2-(dimethyl-1,2-oxazol-4-yl)-6-({5-[3-({[(2S)-1-[(2S,4R)-4-hydroxy-2-({[4-(4-methyl-1,3-thiazol-5-yl)phenyl]methyl}carbamoyl)pyrrolidin-1-yl]-3,3-dimethyl-1-oxobutan-2-yl]carbamoyl}methoxy)propoxy]pentyl}oxy)-9H-carbazole-4-carboxamide], the Emax stood at 100% and the DC50 is under 0.01 µM.

For `Cc1ncsc1-c1ccc(CNC(=O)[C@@H]2C[C@@H](O)CN2C(=O)[C@@H](c2cnn(CCCOCCNC(=O)C[C@@H]3N=C(c4ccc(Cl)cc4)c4c(sc(C)c4C)-n4c(C)nnc43)c2)C(C)C)cc1` [Example 144], the Emax was found to be 73% and the DC50 lay within 0.1 to 1 µM.

Regarding `Cc1ncsc1-c1ccc(CNC(=O)[C@@H]2C[C@@H](O)CN2C(=O)[C@H](c2cnn(CCCOCCNC(=O)C[C@@H]3N=C(c4ccc(Cl)cc4)c4c(sc(C)c4C)-n4c(C)nnc43)c2)C(C)C)cc1` [Example 145], the Emax worked out at 15.9% and the DC50 was over 1 µM.

Take `Cc1ncsc1-c1ccc([C@H](C)NC(=O)[C@@H]2C[C@@H](O)CN2C(=O)[C@@H](NC(=O)COC/C=C\COCCNC(=O)C[C@@H]2N=C(c3ccc(Cl)cc3)c3c(sc(C)c3C)-n3c(C)nnc32)C(C)(C)C)cc1` [Example 146, (2S,4R)-1-[(2S)-2-(2-{[(2Z)-4-(2-{2-[(9S)-7-(4-chlorophenyl)-4,5,13-trimethyl-3-thia-1,8,11,12-tetraazatricyclo[8.3.0.0^2,^6]trideca-2(6),4,7,10,12-pentaen-9-yl]acetamido}ethoxy)but-2-en-1-yl]oxy}acetamido)-3,3-dimethylbutanoyl]-4-hydroxy-N-[(1S)-1-[4-(4-methyl-1,3-thiazol-5-yl)phenyl]ethyl]pyrrolidine-2-carboxamide]: the Emax turned out to be 100% and the DC50 was under 0.01 µM.

Regarding `Cc1ncsc1-c1ccc([C@H](C)NC(=O)[C@@H]2C[C@@H](O)CN2C(=O)[C@@H](NC(=O)COCCOCCCNC(=O)C[C@@H]2N=C(c3ccc(Cl)cc3)c3c(sc(C)c3C)-n3c(C)nnc32)C(C)(C)C)cc1` [Example 147], the Emax was 98.5% and the DC50 is under 0.01 µM.

As for `Cc1ncsc1-c1ccc([C@H](C)NC(=O)[C@@H]2C[C@@H](O)CN2C(=O)[C@@H](NC(=O)COCCCOCCN(C)C(=O)C[C@@H]2N=C(c3ccc(Cl)cc3)c3c(sc(C)c3C)-n3c(C)nnc32)C(C)(C)C)cc1` [Example 148], the Emax was found to be 100% and the DC50 was under 0.01 µM.

For the molecule `CC(=O)N[C@H](C(=O)N1C[C@H](O)C[C@H]1C(=O)NCc1ccc(-c2scnc2C)cc1OCCOCCOc1ccc(C2=NC(CC(=O)Nc3ccccc3)c3nnc(C)n3-c3sc(C)c(C)c32)cc1)C(C)(C)C` (stereo partly shown) [Example 149], the Emax was 57.3% and the 50% degradation concentration (DC50) is 0.1 to 1 µM.

As to `Cc1ncsc1-c1ccc([C@H](C)NC(=O)[C@@H]2C[C@@H](O)CN2C(=O)[C@@H](NC(=O)CCc2cc(F)cc(OCCNC(=O)C[C@@H]3N=C(c4ccc(Cl)cc4)c4c(sc(C)c4C)-n4c(C)nnc43)c2)C(C)(C)C)cc1` [Example 150, (2S,4R)-1-[(2S)-2-{3-[3-(2-{2-[(9S)-7-(4-chlorophenyl)-4,5,13-trimethyl-3-thia-1,8,11,12-tetraazatricyclo[8.3.0.0^2,^6]trideca-2(6),4,7,10,12-pentaen-9-yl]acetamido}ethoxy)-5-fluorophenyl]propanamido}-3,3-dimethylbutanoyl]-4-hydroxy-N-[(1S)-1-[4-(4-methyl-1,3-thiazol-5-yl)phenyl]ethyl]pyrrolidine-2-carboxamide], the Emax is 93.9% and the half-maximal degradation concentration (DC50) is under 0.01 µM.

As to `Cc1ncsc1-c1ccc([C@H](C)NC(=O)[C@@H]2C[C@@H](O)CN2C(=O)[C@@H](NC(=O)CCc2cc(OC(C)CNC(=O)C[C@@H]3N=C(c4ccc(Cl)cc4)c4c(sc(C)c4C)-n4c(C)nnc43)ccc2F)C(C)(C)C)cc1` (stereo partly shown) [Example 151], the Emax amounted to 96% and the DC50 was under 0.01 µM.

Take `Cc1ncsc1-c1ccc(CNC(=O)[C@@H]2C[C@@H](O)CN2C(=O)[C@@H](NC(=O)COCCOCCOCCCCOc2ccc3c(c2)c2c(C(N)=O)cc(-c4c(C)noc4C)cc2n3Cc2ccccc2)C(C)(C)C)cc1` [Example 152]: the Emax was found to be 95% and the DC50 lay within 0.01 to 0.1 µM.

On to `Cc1ncsc1-c1ccc([C@H](C)NC(=O)[C@@H]2C[C@@H](O)CN2C(=O)[C@@H](NC(=O)[C@H](C)OCCCOCCNC(=O)C[C@@H]2N=C(c3ccc(Cl)cc3)c3c(sc(C)c3C)-n3c(C)nnc32)C(C)(C)C)cc1` [Example 153], for which the Emax was determined as 92% and the half-maximal degradation concentration (DC50) is under 0.01 µM.

In general, DC50 refers to the concentration giving 50% degradation.

The record behind these values is patent publication US11554171B2, “Compounds and methods for the targeted degradation of bromodomain-containing proteins” (Arvinas Operations, Inc., priority 2015, dated 2023).
